Assays:
[1] = Therapeutic index, ratio of IC50 for human H9 cells to EC50 for HIV1 3B; format: cell-based; conditions: H9 cells (cytotoxicity) and HIV-1 3B (antiviral), read-out: TI
[2] = system: Human immunodeficiency virus 1; assay: Antiviral activity against HIV1 3B in human H9 cells assessed as inhibition of viral replication after 3 days by p24 antigen capture assay; format: functional, organism-based; conditions: Human immunodeficiency virus 1, 3B, H9, 72 h
[3] = system: H9; assay: Cytotoxicity against human H9 cells after 3 days; format: cell-based; conditions: H9, 72 h

Row | Compound | EC50 [2] | selectivity ratio [1] | IC50 [3]
1 | CC1(C)CC[C@]2(C(=O)O)[C@H](O)C[C@]3(C)C(=CC[C@@H]4[C@@]5(C)CC[C@H](O)C(C)(C)[C@@H]5CC[C@]43C)[C@@H]2C1 [ECHINOCYSTIC ACID] | – | 1.8 | –
2 | CCCCC(=O)O[C@H]1CC[C@]2(C)[C@H]3CC=C4[C@H]5CC(C)(C)CC[C@]5(C(=O)OC)[C@H](OC(=O)CCCC)C[C@@]4(C)[C@]3(C)CC[C@H]2C1(C)C | 31 µM | 1.8 | 54 µM
3 | CC1(C)CC[C@]2(C(=O)O)[C@H](O)C[C@]3(C)C(=CC[C@@H]4[C@@]5(C)CC[C@H](O)C(C)(C)[C@@H]5CC[C@]43C)[C@H]2C1 [ECHINOCYSTIC ACID] | 42 µM | – | 74 µM
4 | C[C@@H]1O[C@@H](OC[C@H]2O[C@@H](OC(=O)[C@]34CCC(C)(C)C[C@@H]3C3=CC[C@@H]5[C@@]6(C)CC[C@H](O[C@@H]7O[C@H](CO[C@@H]8OC[C@H](O)[C@H](O)[C@H]8O[C@@H]8OC[C@@H](O)[C@H](O)[C@H]8O)[C@@H](O)[C@H](O)[C@H]7O)C(C)(C)[C@@H]6CC[C@@]5(C)[C@]3(C)C[C@H]4O)[C@H](O[C@@H]3O[C@@H](C)[C@H](O[C@@H]4OC[C@@H](O)[C@H](O[C@@H]5OC[C@@H](O)[C@H](O)[C@H]5O)[C@H]4O)[C@@H](O)[C@H]3O)[C@@H](O)[C@@H]2O)[C@H](O)[C@H](O)[C@H]1O | > 100 µM | – | 43 µM
5 | CCCCC(=O)O[C@H]1CC[C@]2(C)[C@H]3CC=C4[C@H]5CC(C)(C)CC[C@]5(C(=O)OC)[C@H](O)C[C@@]4(C)[C@]3(C)CC[C@H]2C1(C)C | 30 µM | 5.9 | 180 µM
6 | CC1(C)CC[C@]2(C(=O)O)[C@H](O)C[C@]3(C)C(=CC[C@@H]4[C@@]5(C)CC[C@H](O[C@@H]6O[C@H](CO[C@@H]7OC[C@H](O)[C@H](O)[C@H]7O[C@@H]7OC[C@@H](O)[C@H](O)[C@H]7O)[C@@H](O)[C@H](O)[C@H]6O)C(C)(C)[C@@H]5CC[C@]43C)[C@H]2C1 | > 100 µM | – | 37 µM
7 | CC1(C)C[C@@H]2C3=CC[C@@H]4[C@@]5(C)C[C@H](O)[C@H](O[C@@H]6O[C@H](CO[C@@H]7OC[C@H](O)[C@H](O)[C@H]7O[C@@H]7OC[C@@H](O)[C@H](O)[C@H]7O)[C@@H](O)[C@H](O)[C@H]6O)[C@@](C)(CO)[C@@H]5CC[C@@]4(C)[C@]3(C)C[C@H](O)[C@@]23C[C@@H]1OC3=O | 100 µM | > 1 | > 100 µM
8 | CCCC(=O)O[C@H]1CC[C@]2(C)[C@H]3CC=C4[C@H]5CC(C)(C)CC[C@]5(C(=O)OC)[C@H](O)C[C@@]4(C)[C@]3(C)CC[C@H]2C1(C)C | 27 µM | 1 | 27 µM

Continued by falling EC50 [2], values first:

Row | EC50 [2] | Compound | selectivity ratio [1] | IC50 [3]
9 | 15 µM | CCCC(=O)O[C@H]1CC[C@]2(C)[C@H]3CC=C4[C@H]5CC(C)(C)CC[C@]5(C(=O)OC)[C@H](OC(=O)CCC)C[C@@]4(C)[C@]3(C)CC[C@H]2C1(C)C | > 11 | > 160 µM
10 | 13 µM | CC1(C)CC[C@]2(C(=O)O)[C@H](O)C[C@]3(C)C(=CC[C@@H]4[C@@]5(C)CC[C@H](O[C@@H]6O[C@H](CO[C@@H]7OC[C@H](O)[C@H](O)[C@H]7O)[C@@H](O)[C@H](O)[C@H]6O)C(C)(C)[C@@H]5CC[C@]43C)[C@H]2C1 | 3.8 | 50 µM
11 | 9.9 µM | COC(=O)[C@]12CCC(C)(C)C[C@@H]1C1=CC[C@@H]3[C@@]4(C)CC[C@H](O[C@@H]5O[C@H](CO[C@@H]6OC[C@H](O)[C@H](O)[C@H]6O[C@@H]6OC[C@@H](O)[C@H](O)[C@H]6O)[C@@H](O)[C@H](O)[C@H]5O)C(C)(C)[C@@H]4CC[C@@]3(C)[C@]1(C)C[C@H]2O | 2.2 | 22 µM
12 | 8 µM | CC1(C)C[C@@H]2C3=CC[C@@H]4[C@@]5(C)C[C@H](O)[C@H](O)[C@@](C)(CO)[C@@H]5CC[C@@]4(C)[C@]3(C)C[C@H](O)[C@@]23C[C@@H]1OC3=O | 5 | 40 µM
13 | 5.1 µM | COC(=O)[C@]12CCC(C)(C)C[C@@H]1C1=CC[C@@H]3[C@@]4(C)CC[C@H](OC(C)=O)C(C)(C)[C@@H]4CC[C@@]3(C)[C@]1(C)C[C@H]2O | 1.5 | 7.6 µM
14 | 3.1 µM | COC(=O)[C@]12CCC(C)(C)C[C@@H]1C1=CC[C@@H]3[C@@]4(C)CC[C@H](O)C(C)(C)[C@@H]4CC[C@@]3(C)[C@]1(C)C[C@H]2O [METHYL ECHINOCYSTATE] | 1.6 | 4.9 µM
15 | 2.7 µM | C=C[C@](C)(CC/C=C(\C)C(=O)O[C@H]1C[C@@]2(C(=O)O[C@@H]3O[C@H](CO[C@@H]4O[C@@H](C)[C@H](O)[C@@H](O)[C@H]4O)[C@@H](O)[C@H](O)[C@H]3O[C@@H]3O[C@@H](C)[C@H](O[C@@H]4OC[C@@H](O)[C@H](O[C@@H]5OC[C@@H](O)[C@H](O)[C@H]5O)[C@H]4O)[C@@H](O)[C@H]3O)[C@H](CC1(C)C)C1=CC[C@@H]3[C@@]4(C)C[C@H](O)[C@H](O[C@@H]5O[C@H](CO[C@@H]6OC[C@H](O)[C@H](O)[C@H]6O[C@@H]6OC[C@@H](O)[C@H](O)[C@H]6O)[C@@H](O)[C@H](O)[C@H]5O)[C@@](C)(CO)[C@@H]4CC[C@@]3(C)[C@]1(C)C[C@@H]2O)O[C@@H]1OC[C@H](OC(=O)CC(C)C)[C@H](O[C@@H]2O[C@H](CO)[C@@H](O)[C@H](O)[C@H]2O)[C@H]1O [GYMNOCLADUS SAPONIN G] | 5.2 | 14 µM
16 | 2.3 µM | CC(=O)O[C@H]1CC[C@]2(C)[C@H]3CC=C4[C@H]5CC(C)(C)CC[C@]5(C(=O)O)[C@H](OC(C)=O)C[C@@]4(C)[C@]3(C)CC[C@H]2C1(C)C | 5.4 | 13 µM
17 | 1.1 µM | C=C[C@@](C)(O)CC/C=C(\C)C(=O)O[C@H]1[C@H](OC[C@H]2O[C@@H](OC(=O)[C@]34CCC(C)(C)C[C@@H]3C3=CC[C@@H]5[C@@]6(C)CC[C@H](O[C@@H]7O[C@H](CO[C@@H]8OC[C@H](O)[C@H](O)[C@H]8O[C@@H]8OC[C@@H](O)[C@H](O)[C@H]8O)[C@@H](O)[C@H](O)[C@H]7O)C(C)(C)[C@@H]6CC[C@@]5(C)[C@]3(C)C[C@H]4O)[C@H](O[C@@H]3O[C@@H](C)[C@H](O[C@@H]4OC[C@@H](O)[C@H](O[C@@H]5OC[C@@H](O)[C@H](O)[C@H]5O)[C@H]4O)[C@@H](O)[C@H]3O)[C@@H](O)[C@@H]2O)O[C@@H](C)[C@H](O)[C@H]1OC(=O)/C(=C/CC[C@](C)(O)C=C)CO [GLEDITSIA SAPONIN C] | 8.9 | 9.8 µM
